From ChEMBL document CHEMBL1201862, “PubChem BioAssay data set” (2004)
Activity calls are given as the source filed them.

Tests used:
[1] = target: T1, Alkaline phosphatase, tissue-nonspecific isozyme (Homo sapiens, UniProt P05186); test: potency against alkaline phosphatase TNAP – biochemical, luminescent, dose response, SAR follow-up (AID 1056)
T1 sequence (P05186 whole entry): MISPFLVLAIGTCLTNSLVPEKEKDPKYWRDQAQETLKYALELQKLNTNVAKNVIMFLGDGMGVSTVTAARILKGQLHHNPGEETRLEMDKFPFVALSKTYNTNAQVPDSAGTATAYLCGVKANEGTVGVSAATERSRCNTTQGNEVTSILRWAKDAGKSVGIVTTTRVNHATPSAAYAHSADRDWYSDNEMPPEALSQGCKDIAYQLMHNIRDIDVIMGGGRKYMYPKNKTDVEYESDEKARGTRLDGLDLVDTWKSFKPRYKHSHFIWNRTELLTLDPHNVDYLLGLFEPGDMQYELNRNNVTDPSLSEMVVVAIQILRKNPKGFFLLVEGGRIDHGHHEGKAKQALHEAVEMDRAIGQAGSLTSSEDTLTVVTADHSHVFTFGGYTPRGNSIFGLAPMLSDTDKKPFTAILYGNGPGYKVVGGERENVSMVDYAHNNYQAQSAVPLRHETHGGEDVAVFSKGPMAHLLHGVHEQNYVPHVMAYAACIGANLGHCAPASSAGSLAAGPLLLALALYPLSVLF

[2] = target: Alkaline phosphatase, placental type (Homo sapiens, UniProt P05187); test: human placental alkaline phosphatase inhibition – biochemical, luminescence, confirmation (AID 1512); format: functional
[3] = target: Glyceraldehyde-3-phosphate dehydrogenase (Homo sapiens, UniProt P04406)
[4] = luciferase reporter signal suppression in cells – H4 neuroglioma cells, luminescence, dose response (AID 1990); format: functional, cell-based
[5] = target: Type-1 angiotensin II receptor (Homo sapiens, UniProt P30556); test: agonist activity at AGTR1 – cell-based, uHTS hits, selectivity assay for APJ receptor agonist project, dose response (AID 488865); format: functional;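 note: beta-arrestin recruitment to AT1 measured by enzyme fragment complementation luminescence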
[6] = alpha-synuclein stem-loop luciferase translation blockers – H4 neuroglioma cells, luminescence, confirmation (AID 1988); format: functional, cell-based
[7] = Luminescence Cell-Based Dose Response HTS to Identify Inhibitors of 5'UTR Stem-Loop Driven Prion Protein mRNA Translation in H4 Neuroglioblastoma Cells. [Related pubchem assays: 1827 (Project Summary), 1813 (Primary HTS)]; format: functional
[8] = target: Sphingosine 1-phosphate receptor 4 (Homo sapiens, UniProt O95977); test: potency of S1P4 activators – cell-based, fluorescence, synthesized compounds, late-stage follow-up (AID 463107); format: functional
[9] = NIH/3T3 cell viability loss – mouse embryonic fibroblasts, dry powder, set 2, cytotoxicity control, dose response (AID 493247); format: functional, cell-based; conditions: Fibroblast
[10] = tested on: Trypanosoma cruzi; test: anti-trypanosomal activity in host cells – cell-based, plate reader, dry powder, set 3, dose response (AID 493197); format: functional
[11] = target: T2, Cannabinoid receptor 2 (Homo sapiens, UniProt P34972); test: SAR analysis of agonists of the Cannabinoid Receptor 2 using an Image-Based Assay. [Related pubchem assays (depositor defined):AID2013, AID2026]; format: functional
[12] = target: T3, Cannabinoid receptor 1 (Homo sapiens, UniProt P21554); test: SAR analysis of antagonists of the Cannabinoid Receptor 1 using an Image-Based Assay - Set 2. [Related pubchem assays (depositor defined):AID2013, AID2026]; format: functional
[13] = target: T4, G-protein coupled receptor 35 (Homo sapiens, UniProt Q9HC97); test: SAR analysis of Antagonists of the GPR35 Receptor using an Image-Based Assay - Set 3. [Related pubchem assays (depositor defined):AID2013, AID2026]; format: functional
[14] = target: T4, G-protein coupled receptor 35; test: SAR analysis of Agonists of the GPR35 Receptor using an Image-Based Assay - Set 2. [Related pubchem assays (depositor defined):AID2013, AID2026]; format: functional
[15] = target: T2, Cannabinoid receptor 2; test: SAR analysis of antagonists of the Cannabinoid Receptor 2 using an Image-Based Assay. [Related pubchem assays (depositor defined):AID2013, AID2026]; format: functional
[16] = target: T5, G-protein coupled receptor 55 (Homo sapiens, UniProt Q9Y2T6); test: inhibition of LPI-stimulated GPR55 beta-arrestin translocation – imaging, U2OS, beta-arrestin-GFP, LPI agonist, primary screen (AID 2013); format: functional;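 note: antagonist potency measured as reduced agonist-driven arrestin aggregation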
[17] = target: T5, G-protein coupled receptor 55; test: blockade of LPI-induced GPR55 arrestin translocation – imaging, U2OS, beta-arrestin-GFP, LPI agonist, set 2, SAR follow-up (AID 2820); format: functional
[18] = target: T3, Cannabinoid receptor 1; test: SAR analysis of agonists of the Cannabinoid Receptor 1 using an Image-Based Assay - Set 2. [Related pubchem assays (depositor defined):AID2013, AID2026]; format: functional
[19] = target: Glucose-6-phosphate 1-dehydrogenase (Homo sapiens, UniProt P11413); test: inhibition of Homo sapiens G6PD, dose series – biochemical, fluorescence, selectivity assay for P. falciparum G6PD inhibitor project, dose response (AID 504792); format: functional
[20] = target: DNA dC->dU-editing enzyme APOBEC-3A (Homo sapiens, UniProt P31941); test: A3A deaminase inhibition for selectivity – biochemical, dose response (AID 504722); format: functional
[21] = tested on: T-cell; test: loss of vesicle association with mouse CD8+ T cells – mouse 2C CD8+ T cells, flow cytometry, dose response (AID 485284); format: functional
[22] = viability loss in HeLa cells – cytotoxicity control for MgcRacGAP inhibitor project, dose response (AID 624300); format: functional
[23] = target: Phosphomannomutase 2 (Homo sapiens, UniProt O15305); test: Counter screen SAR assay for PMM2 inhibitors via a fluorescence intensity assay. [Related pubchem assays (depositor defined):AID1545, AID1574]
[24] = target: Phosphoethanolamine/phosphocholine phosphatase (Homo sapiens, UniProt Q8TCT1); test: SAR assay for compounds that inhibit PHOSPHO1. [Related pubchem assays (depositor defined):AID1545, AID1565, AID1574]
[25] = target: T6, Rac GTPase-activating protein 1 (Homo sapiens, UniProt Q9H0H5); test: blockers of MgcRacGAP-driven Rac1 GTP hydrolysis – biochemical, ADP Hunter fluorescence, primary and confirmatory, confirmation (AID 624330); format: functional
T6 sequence (Q9H0H5 whole entry): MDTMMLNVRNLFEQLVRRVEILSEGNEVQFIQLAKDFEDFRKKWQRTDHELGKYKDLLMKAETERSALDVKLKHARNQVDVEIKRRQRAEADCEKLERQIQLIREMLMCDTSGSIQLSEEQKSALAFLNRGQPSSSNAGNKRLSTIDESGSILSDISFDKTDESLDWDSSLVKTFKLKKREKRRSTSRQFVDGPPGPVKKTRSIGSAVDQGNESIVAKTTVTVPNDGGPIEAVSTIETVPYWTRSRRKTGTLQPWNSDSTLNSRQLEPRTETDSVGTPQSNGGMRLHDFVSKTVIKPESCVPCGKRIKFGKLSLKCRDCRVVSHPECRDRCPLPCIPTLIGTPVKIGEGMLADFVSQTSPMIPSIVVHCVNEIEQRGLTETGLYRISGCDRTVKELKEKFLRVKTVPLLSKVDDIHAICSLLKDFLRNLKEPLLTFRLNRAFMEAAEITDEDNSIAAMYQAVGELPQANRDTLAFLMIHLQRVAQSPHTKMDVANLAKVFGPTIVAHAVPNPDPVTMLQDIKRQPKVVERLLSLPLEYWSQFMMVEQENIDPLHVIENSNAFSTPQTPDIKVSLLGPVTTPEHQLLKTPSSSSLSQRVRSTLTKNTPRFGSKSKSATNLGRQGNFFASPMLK

[26] = target: DNA dC->dU-editing enzyme APOBEC-3G (Homo sapiens, UniProt Q9HC16); test: Dose Response confirmation of small molecule APOBEC3G DNA Deaminase Inhibitors via a fluorescence-based single-stranded DNA deaminase assay. [Related pubchem assays (depositor defined):AID493012, AID493028]; format: functional
DNA dC->dU-editing enzyme APOBEC-3G, sequence (Q9HC16 whole entry): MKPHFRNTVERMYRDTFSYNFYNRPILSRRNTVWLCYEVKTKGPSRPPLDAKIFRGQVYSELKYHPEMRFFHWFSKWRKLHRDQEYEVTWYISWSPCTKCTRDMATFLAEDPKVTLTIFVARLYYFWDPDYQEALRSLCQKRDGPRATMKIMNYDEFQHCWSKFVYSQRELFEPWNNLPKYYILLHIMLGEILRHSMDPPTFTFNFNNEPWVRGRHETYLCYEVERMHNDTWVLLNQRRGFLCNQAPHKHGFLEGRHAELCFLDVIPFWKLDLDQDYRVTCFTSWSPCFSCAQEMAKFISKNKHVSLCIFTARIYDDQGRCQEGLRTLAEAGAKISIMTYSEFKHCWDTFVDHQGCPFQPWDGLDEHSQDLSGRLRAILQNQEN

T5 sequence (Q9Y2T6 whole entry): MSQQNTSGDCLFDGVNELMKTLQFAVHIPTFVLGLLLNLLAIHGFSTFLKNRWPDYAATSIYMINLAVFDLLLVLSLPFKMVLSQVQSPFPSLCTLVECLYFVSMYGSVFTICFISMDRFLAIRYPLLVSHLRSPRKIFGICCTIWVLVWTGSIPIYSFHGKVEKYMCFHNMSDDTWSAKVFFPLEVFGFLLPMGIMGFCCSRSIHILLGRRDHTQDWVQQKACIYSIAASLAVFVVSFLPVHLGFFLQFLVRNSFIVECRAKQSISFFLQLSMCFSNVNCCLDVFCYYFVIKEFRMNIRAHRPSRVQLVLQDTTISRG
T4 sequence (Q9HC97 whole entry): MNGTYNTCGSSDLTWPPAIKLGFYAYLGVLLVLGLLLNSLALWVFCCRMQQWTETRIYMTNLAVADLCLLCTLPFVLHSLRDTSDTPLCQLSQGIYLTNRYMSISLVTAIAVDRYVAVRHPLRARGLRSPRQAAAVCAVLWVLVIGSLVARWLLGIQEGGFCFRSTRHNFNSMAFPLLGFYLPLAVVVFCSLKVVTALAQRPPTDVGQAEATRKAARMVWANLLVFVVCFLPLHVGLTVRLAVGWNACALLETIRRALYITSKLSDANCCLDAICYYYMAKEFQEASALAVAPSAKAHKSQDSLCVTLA
T2 sequence (P34972 whole entry): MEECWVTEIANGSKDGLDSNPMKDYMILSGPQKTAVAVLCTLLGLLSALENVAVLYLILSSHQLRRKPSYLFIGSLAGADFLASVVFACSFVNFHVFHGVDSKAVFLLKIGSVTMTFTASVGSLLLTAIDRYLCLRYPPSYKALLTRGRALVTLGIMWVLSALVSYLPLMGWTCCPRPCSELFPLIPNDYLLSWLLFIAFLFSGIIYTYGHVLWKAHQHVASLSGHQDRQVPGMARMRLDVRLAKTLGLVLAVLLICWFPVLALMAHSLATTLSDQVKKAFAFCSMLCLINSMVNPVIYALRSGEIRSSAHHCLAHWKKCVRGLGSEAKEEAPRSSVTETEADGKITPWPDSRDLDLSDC
T3 sequence (P21554 whole entry): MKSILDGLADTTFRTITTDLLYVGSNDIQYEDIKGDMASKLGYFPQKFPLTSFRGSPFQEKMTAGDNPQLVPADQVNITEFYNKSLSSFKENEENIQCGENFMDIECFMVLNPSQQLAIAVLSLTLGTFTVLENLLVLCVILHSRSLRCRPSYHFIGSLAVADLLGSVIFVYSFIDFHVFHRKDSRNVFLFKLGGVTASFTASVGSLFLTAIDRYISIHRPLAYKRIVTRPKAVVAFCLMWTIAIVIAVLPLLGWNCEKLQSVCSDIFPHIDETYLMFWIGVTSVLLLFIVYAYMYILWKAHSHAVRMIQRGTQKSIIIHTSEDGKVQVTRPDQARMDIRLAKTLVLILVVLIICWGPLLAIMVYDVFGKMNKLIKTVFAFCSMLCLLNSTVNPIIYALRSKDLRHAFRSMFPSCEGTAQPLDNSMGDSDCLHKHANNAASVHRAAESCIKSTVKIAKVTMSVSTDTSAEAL
DNA dC->dU-editing enzyme APOBEC-3A, sequence (P31941 whole entry): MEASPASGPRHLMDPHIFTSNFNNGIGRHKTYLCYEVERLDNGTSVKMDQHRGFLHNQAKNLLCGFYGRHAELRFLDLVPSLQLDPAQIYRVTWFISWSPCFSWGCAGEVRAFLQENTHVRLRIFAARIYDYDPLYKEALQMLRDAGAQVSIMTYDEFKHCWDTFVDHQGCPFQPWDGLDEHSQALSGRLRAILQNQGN
Type-1 angiotensin II receptor, sequence (P30556 whole entry, the tested form may be a part): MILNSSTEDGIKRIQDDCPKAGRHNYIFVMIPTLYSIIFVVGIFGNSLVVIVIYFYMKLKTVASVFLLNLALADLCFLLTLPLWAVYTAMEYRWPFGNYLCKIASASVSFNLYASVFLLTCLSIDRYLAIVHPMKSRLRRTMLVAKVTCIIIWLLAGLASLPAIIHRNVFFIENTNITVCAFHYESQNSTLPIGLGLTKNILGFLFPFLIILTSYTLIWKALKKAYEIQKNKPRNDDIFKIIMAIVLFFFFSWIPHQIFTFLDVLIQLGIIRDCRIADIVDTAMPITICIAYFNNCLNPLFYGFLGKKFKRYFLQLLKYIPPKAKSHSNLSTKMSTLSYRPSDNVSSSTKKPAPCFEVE
Phosphoethanolamine/phosphocholine phosphatase, sequence (Q8TCT1 whole entry): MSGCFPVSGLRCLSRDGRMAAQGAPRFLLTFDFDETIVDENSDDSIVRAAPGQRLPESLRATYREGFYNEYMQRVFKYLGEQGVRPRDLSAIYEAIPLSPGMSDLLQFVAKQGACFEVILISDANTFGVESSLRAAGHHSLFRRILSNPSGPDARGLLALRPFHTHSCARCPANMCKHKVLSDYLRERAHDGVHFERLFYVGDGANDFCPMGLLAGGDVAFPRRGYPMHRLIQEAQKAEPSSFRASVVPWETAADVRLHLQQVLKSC
Alkaline phosphatase, placental type, sequence (P05187 whole entry): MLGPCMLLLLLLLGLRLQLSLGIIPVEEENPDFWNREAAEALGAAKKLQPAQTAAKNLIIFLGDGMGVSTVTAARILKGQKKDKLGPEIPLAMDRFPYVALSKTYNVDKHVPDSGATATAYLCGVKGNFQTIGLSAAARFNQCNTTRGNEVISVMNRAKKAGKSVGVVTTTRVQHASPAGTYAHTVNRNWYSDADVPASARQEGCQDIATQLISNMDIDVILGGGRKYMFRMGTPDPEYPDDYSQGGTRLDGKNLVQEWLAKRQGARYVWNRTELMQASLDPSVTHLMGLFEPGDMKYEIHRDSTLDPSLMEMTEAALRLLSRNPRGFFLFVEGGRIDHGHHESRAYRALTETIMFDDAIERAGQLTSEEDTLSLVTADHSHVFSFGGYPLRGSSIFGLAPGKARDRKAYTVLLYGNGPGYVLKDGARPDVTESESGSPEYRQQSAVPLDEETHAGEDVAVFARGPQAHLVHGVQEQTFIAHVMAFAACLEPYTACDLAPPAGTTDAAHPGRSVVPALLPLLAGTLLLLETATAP
Glyceraldehyde-3-phosphate dehydrogenase, sequence (P04406 whole entry): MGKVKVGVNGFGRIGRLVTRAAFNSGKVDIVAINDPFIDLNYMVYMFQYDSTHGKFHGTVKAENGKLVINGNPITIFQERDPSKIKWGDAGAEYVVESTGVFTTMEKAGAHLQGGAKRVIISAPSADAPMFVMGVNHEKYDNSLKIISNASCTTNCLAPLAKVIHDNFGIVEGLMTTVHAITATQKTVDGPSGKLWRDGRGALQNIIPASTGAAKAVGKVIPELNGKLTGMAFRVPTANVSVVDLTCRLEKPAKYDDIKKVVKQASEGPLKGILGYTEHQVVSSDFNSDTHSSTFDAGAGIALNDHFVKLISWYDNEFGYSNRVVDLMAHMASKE
Sphingosine 1-phosphate receptor 4, sequence (O95977 whole entry): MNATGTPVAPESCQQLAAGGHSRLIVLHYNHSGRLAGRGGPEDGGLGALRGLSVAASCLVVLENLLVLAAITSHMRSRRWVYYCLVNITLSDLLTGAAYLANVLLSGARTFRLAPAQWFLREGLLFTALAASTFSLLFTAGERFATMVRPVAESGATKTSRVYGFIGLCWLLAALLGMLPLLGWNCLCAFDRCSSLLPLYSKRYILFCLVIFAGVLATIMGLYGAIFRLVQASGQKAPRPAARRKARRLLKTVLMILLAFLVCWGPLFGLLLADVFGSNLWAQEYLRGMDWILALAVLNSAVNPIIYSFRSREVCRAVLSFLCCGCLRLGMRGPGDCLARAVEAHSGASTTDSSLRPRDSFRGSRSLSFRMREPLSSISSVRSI
Glucose-6-phosphate 1-dehydrogenase, sequence (P11413 whole entry): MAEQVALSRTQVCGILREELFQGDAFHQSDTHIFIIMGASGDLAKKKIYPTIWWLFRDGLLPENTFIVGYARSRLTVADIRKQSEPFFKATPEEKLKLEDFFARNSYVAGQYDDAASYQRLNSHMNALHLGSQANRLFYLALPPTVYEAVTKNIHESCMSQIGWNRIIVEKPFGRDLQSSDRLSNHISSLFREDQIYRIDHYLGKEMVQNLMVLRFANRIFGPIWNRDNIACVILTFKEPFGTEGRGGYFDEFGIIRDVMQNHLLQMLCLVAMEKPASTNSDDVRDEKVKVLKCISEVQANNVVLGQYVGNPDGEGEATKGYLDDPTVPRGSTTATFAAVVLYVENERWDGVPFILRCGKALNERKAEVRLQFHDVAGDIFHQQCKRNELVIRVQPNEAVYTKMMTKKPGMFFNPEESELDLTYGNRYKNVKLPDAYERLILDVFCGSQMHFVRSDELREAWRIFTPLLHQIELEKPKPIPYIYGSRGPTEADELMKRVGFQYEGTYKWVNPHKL
Phosphomannomutase 2, sequence (O15305 whole entry): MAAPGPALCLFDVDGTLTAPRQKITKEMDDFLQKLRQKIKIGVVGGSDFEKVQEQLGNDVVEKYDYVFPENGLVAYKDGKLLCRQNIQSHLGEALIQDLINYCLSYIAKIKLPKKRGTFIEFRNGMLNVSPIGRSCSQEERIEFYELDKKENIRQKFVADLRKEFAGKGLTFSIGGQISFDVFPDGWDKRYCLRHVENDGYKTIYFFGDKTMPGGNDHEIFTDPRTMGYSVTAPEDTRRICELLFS

Q: What does the source list for `CCN(CC)C(=O)CSc1nnc(-c2ccccc2OC)[nH]1`?
A: IC50 [1]: 17.6 µM (active); IC50 [2]: > 100 µM (inactive); IC50 [3]: > 100 µM (not active)

Q: Which EC50 [4] does the source give for `CCc1nnc(NC(=O)CSc2nc3cccnc3n2C2CCCCC2)s1` here?
A: Its EC50 is 23.2 µM (active).

Q: And the EC50 [5]?
A: Its EC50 is > 100 µM (inactive).

Q: And the EC50 [6]?
A: The EC50 was 13.3 µM (active).

Q: What about the EC50 [7] of the same molecule?
A: Its EC50 is > 120 µM (not active).

Q: For `Cc1ccc(OCCOc2ccccc2C(F)(F)F)c([N+](=O)[O-])n1`, which EC50 [8] is on record?
A: The EC50 was > 50 µM (inactive).

Q: With `O=C(CCc1ccccc1)N/N=C/c1ccc([N+](=O)[O-])o1` as the molecule, how does the AC50 [9] read?
A: Its AC50 is 26.3 µM (active).

Q: What about the AC50 [10] of the same molecule?
A: The AC50 was 0.335 µM (active).

Q: Which results are given for `Cc1n[nH]c(-c2ccc(O)c(C)c2O)c1Oc1ccccc1`?
A: EC50 [11]: > 32 µM (inactive); IC50 [12]: 11.7 µM (inactive); IC50 [13]: > 32 µM (inactive); EC50 [14]: > 32 µM (inactive); IC50 [15]: > 32 µM (inactive); IC50 [16]: 1.9 µM (active); IC50 [17]: 0.854 µM (active); EC50 [18]: > 32 µM (inactive)

Q: Which IC50 [1] does the source give for `Cc1ccc(C)c(-n2sc3ccc(F)cc3c2=O)c1` here?
A: The IC50 was > 100 µM (inactive).

Q: What about the IC50 [19] of the same molecule?
A: The IC50 was 11.3 µM (active).

Q: And the IC50 [20]?
A: Its IC50 is > 100 µM (inactive).

Q: What about the EC50 [21] of the same molecule?
A: The EC50 was 3.62 µM (active).

Q: And the CC50 [22]?
A: The CC50 was 67.5 µM (active).

Q: What about the IC50 [23] of the same molecule?
A: The IC50 was 31.3 µM (active).

Q: What about the IC50 [24] of the same molecule?
A: Its IC50 is 7.43 µM (inactive).

Q: And the IC50 [25]?
A: Its IC50 is 34 µM (active).

Q: What about the IC50 [26] of the same molecule?
A: The IC50 was 13.5 µM (active).
